These results are taken from patent publication US4086361A, “Aminoethyl oximes having anti-depressive activity” (U.S. Philips Corporation, priority 1975, dated 1978).

Molecules are shown by their SMILES. Where a name gives a salt, the structure may show the parent alone. Some results are limits rather than exact numbers.

Holding throughout (format): in vivo, male albino mice
Assay [1] deals with serotonin (5-hydroxytryptophan). Put plainly: serotonin potentiation, 5-hydroxytryptophan test. Conditions: Mus musculus; oral, mice; 1 hour before 150 mg/kg i.p. dl-5-hydroxytryptophan. The protocol: The serotonin potentiation was determined in the 5-hydroxytryptophan test. For this purpose, the compounds to be tested were administered orally in a series of dosages to isolated male albino mice (5 mice per dosage) 1 hour prior to intraperitoneal administration of 150 mg/kg of dl-5-hydroxytryptophan. Thirty minutes after this threshold dosage the mice were observed individually and the following parameters were scored: stereotypical shaking of the head, spreading of the hindlegs, tremor, tendency to flee, lordosis, clonic stamping with the frontlegs. The ED50 value was calculated from the results.

A further assay deals with monoamino oxidase (MAO). The assay can be described thus: monoamino oxidase (MAO) inhibiting effect, tryptamine hydrochloride mortality test. The conditions noted are these: oral, mice; 1 hour before 250 mg/kg s.c. tryptamine hydrochloride; mortality after 18 hours. As for the experimental part:
The monoamino oxidase (MAO) inhibiting effect was determined in experiments in which a quantity of the compound to be tested was administered orally to five male albino mice. One hour later the animals were injected subcutaneously with tryptamine hydrochloride in a quantity of 250 mg/kg. […] Eighteen hours after the administration of tryptamine hydrochloride it was determined how many treated animals had died. The ED50 was determined from the results. By means of the method by Metysova, Arzneimittelforschung 13,- 1039 (1963) it was determined whether the oral administration of 200 mg of a compound to be tested to rats causes stomach ulceration.

The subject of assay [2] is noradrenaline (tetrabenazine ptosis). The assay can be described thus: noradrenaline potentiation, tetrabenazine test. Conditions: Mus musculus, oral, mice, 45 min before 80 mg/kg s.c. tetrabenazine, read-out: noradrenalin potentiation ED50. As for the experimental part:
The noradrenaline potentiation was determined in the tetrabenazine test. In this test a quantity of the compound to be tested was administered orally to five male albino mice. After 45 minutes the animals were injected subcutaneously with 80 mg/kg of tetrabenazine. After another 45 minutes the degree of ptosis was determined and compared with the ptosis of animals which had received tetrabenazine alone. The ED50 was determined from the results.

The term ED50 denotes the dose at which the effect has come halfway, by size or by number of responders. Regarding `CCCCCC(=NOCCN)c1ccc(Br)cc1` [Br CH3, reference compound], the ED50 in assay [1] was determined as 10 mg/kg; in assay [2], 3.1 mg/kg. In addition, the “MAO inhibition ED50” value in the assay on monoamino oxidase (MAO) is given as more than 215 mg/kg.

Regarding `Cl.N#CCCCCC(=NOCCN)c1ccc(Br)cc1` [Br CN, 4'-bromo-5-cyanovalerophenone O-(2-aminoethyl) oxime hydrochloride], the values for the ED50 in assay [1] and in assay [2] were 20 mg/kg and 11.2 mg/kg, respectively. Moreover, the “MAO inhibition ED50” value in the assay on monoamino oxidase (MAO) is more than 215 mg/kg.

As to `COCCOCCCCC(=NOCCN)c1ccc(Br)cc1` [Br OC2 H4 OCH3, 4'-bromo-5-(2-methoxyethoxy) valerophenone O-(2-aminoethyl) oxime fumarate (1 : 1)], the ED50 came out at 35 mg/kg in assay [1] and 6.6 mg/kg in assay [2]. In the assay on monoamino oxidase (MAO), the “MAO inhibition ED50” value is given as more than 215 mg/kg.

With `COCCCCC(=NOCCN)c1ccc(Br)cc1` [Br OCH3, 4'-bromo-5-methoxyvalerophenone O-(2-aminoethyl) oxime fumarate (1 : 1)], the ED50 in assay [1] came out at 22 mg/kg; in assay [2], 6.6 mg/kg. Moreover, in the assay on monoamino oxidase (MAO), the “MAO inhibition ED50” value is given as more than 215 mg/kg.

In the case of `COCCCCCC(=NOCCN)c1ccc(Cl)cc1.Cl` [Cl C2 OCH3, 4'-chloro-6-methoxycaprophenone O-(2-aminoethyl) oxime hydrochloride], the ED50 in assay [1] worked out at 36 mg/kg; in assay [2] it was 5.3 mg/kg. For the same molecule, the “MAO inhibition ED50” value in the assay with monoamino oxidase (MAO) was more than 215 mg/kg.

For `Cl.N#CCCCCCC(=NOCCN)c1ccc(Cl)cc1` [Cl CH2 CN, 4'-chloro-6-cyanocaprophenone O-(2-aminoethyl) oxime hydrochloride], the median effective dose (ED50) in assay [1] amounted to 38 mg/kg; in assay [2], 11 mg/kg. Further, the “MAO inhibition ED50” value in the assay with monoamino oxidase (MAO) is more than 215 mg/kg.

For `CCOCCCCCC(=NOCCN)c1ccc(Cl)cc1.Cl` [Cl CH2 OC2 H5, 4'-chloro-6-ethoxycaprophenone O-(2-aminoethyl) oxime hydrochloride], the ED50 in assay [1] is 54 mg/kg; in assay [2] it was 7.4 mg/kg. Also, the “MAO inhibition ED50” value in the assay with monoamino oxidase (MAO) is more than 215 mg/kg.

Take `CCCCCC(=NOCCN)c1ccc(Cl)cc1` [Cl CH3, reference compound]: the ED50 in assay [1] was determined as 14 mg/kg; in assay [2], 1.9 mg/kg. Moreover, the “MAO inhibition ED50” value in the assay with monoamino oxidase (MAO) is more than 215 mg/kg.

As to `Cl.N#CCCCCC(=NOCCN)c1ccc(Cl)cc1` [Cl CN, 4'-chloro-5-cyanovalerophenone O-(2-aminoethyl) oxime hydrochloride], the ED50 in assay [1] was 20 mg/kg; in assay [2], 6.8 mg/kg. For the same molecule, the “MAO inhibition ED50” value with monoamino oxidase (MAO) is listed as more than 215 mg/kg.

Take `CCCCC(=NOCCN)c1ccc(Cl)cc1` [Cl H, reference compound]: the ED50 in assay [1] came out at 12 mg/kg; in assay [2], 5.6 mg/kg. Besides, in the assay with monoamino oxidase (MAO), the “MAO inhibition ED50” value was more than 215 mg/kg.

Take `COCCOCCCCC(=NOCCN)c1ccc(Cl)cc1` [Cl OC2 H4 OCH3, 4'-chloro-5-(2-methoxyethoxy) valerophenone O-(2-aminoethyl) oxime fumarate (1 : 1)]: the figures for the median effective dose (ED50) in assay [1] and in assay [2] were 41 mg/kg and 4 mg/kg, respectively. Moreover, in the assay on monoamino oxidase (MAO), the “MAO inhibition ED50” value was more than 215 mg/kg.

`CCOCCCCC(=NOCCN)c1ccc(Cl)cc1` [Cl OC2 H5, 4'-chloro-5-ethoxyvalerophenone O-(2-aminoethyl) oxime fumarate (1 : 1)]: the ED50 in assay [1] was 36 mg/kg; in assay [2], 4.3 mg/kg. For the same molecule, in the assay on monoamino oxidase (MAO), the “MAO inhibition ED50” value was more than 215 mg/kg.
